Here are results for two compounds from US20240166654A1, “RUXOLITINIB CRYSTAL AND PHARMACEUTICAL COMPOSITION THEREOF” (ZHEJIANG AUSUN PHARMACEUTICAL CO., LTD., priority 2022, published 2024).

Data set [1] can be described thus: Stability of solid forms in stabilization chamber (appearance or XRPD versus initial solid form). The data set is classed as physicochemical. The conditions noted are these: for Physical stability (solid form): 3.0 g sample, appearance or XRPD compared with initial solid form. The procedure:
3.0 g of ruxolitinib free base in different solid forms was stored in a stabilization chamber, and placed in the condition that the temperature and humidity were controlled to at 25° C., 60% RH, and 40° C., 75% RH for […], respectively. The samples were analyzed by appearance or XRPD to check its solid form and compared with its initial solid form.

Data set [2] can be described thus: Storage of crystal in polyethylene self-sealing bag, XRPD pattern. The format is physicochemical. The conditions noted are these: 30-35° C. for 3 months, transparent polyethylene self-sealing bag, 10.0 g. The procedure: In addition, 10.0 g of crystal of compound of formula I of Example 1 was placed in a transparent polyethylene self-sealing bag and allowed to stand at 30-35° C. for 3 months.

With `N#CC[C@H](C1CCCC1)n1cc(-c2ncnc3[nH]ccc23)cn1` [Foam], in data set [1] (25° C./60%-RH, 2 hours), the “Physical stability (hygroscopicity observation)” value is listed as “hygroscopic” and the “Physical stability (solid form)” value is on record as “Change of solid form,”. In addition, in data set [1] (40° C./75%-RH, 8 hours), the “Physical stability (hygroscopicity observation)” value was “hygroscopic” and the “Physical stability (solid form)” value is reported as “Change of solid form,”.
As for `N#CC[C@H](C1CCCC1)n1cc(-c2ncnc3[nH]ccc23)cn1` [Compound of Formula I of Example 1, ((3R)-3-cyclopentyl-3-[4-(7H-pyrrolo[2,3-d]pyrimidin-4-yl)pyrazol-1-yl]propionitrile)·2H2O], the “Stability of crystalline form by XRPD” value in data set [2] was “remains stable”. Moreover, in data set [1] (25° C., 60% RH for 2 hours and 40° C., 75% RH for 8 hours, summary of Table 4), the “Stability compared with ruxolitinib foam and amorphous form of Example 5” value is on record as “better stability”. Also, the “Physical stability (solid form)” value in data set [1] (25° C./60%-RH, 2 hours) is reported as “No change of solid form”; in data set [1] (40° C./75%-RH, 8 hours), “No change of solid form”.
